From patent publication US20140134658A1, “PSA ENZYMATIC ACTIVITY: A NEW BIOMARKER FOR ASSESSING PROSTATE CANCER AGGRESSIVENESS” (NORTHWESTERN UNIVERSITY, AN ILLINOIS NOT FOR PROFIT …, priority 2010, published 2014)

How the values were obtained:
esterases = experiment: Sacrificial ester control for esterases in a urine sample with peptide substrate; format: biochemical; details: urine sample + peptide substrate 0.4 mM, with and without ester 40 mM; single experiment
Description: This was tested by running a urine sample (+peptide substrate; 0.4 mM) with and without a “sacrificial ester” (alanine methyl ester; 40 mM). The idea is that if there are esterases in the sample, adding a relatively high concentration of ester will prevent them from cleaving the peptide substrate and we should therefore see a higher turnover of substrate.

PSA = target: T1, PSA (Homo sapiens, UniProt P07288); experiment: Optical (fluorogenic) assay of peptide substrate cleavage by PSA; format: biochemical; details: fluorogenic AMC-labelled substrate, 0.4 mM in buffer A
T1 construct: purchased Scripps Laboratories
Description: Serial dilution of PSA (reagent #5)+substrate
The desired clinical urine samples were thawed at room temperature, gently vortexed, and briefly centrifuged (<20 seconds) to accumulate sample at the bottom of the tube. Each 50 μL sample was transferred via pipette to the 96-well microplate. The PSA standards (20 μL) were prepared and loaded in the same way. A multichannel pipette was used to transfer the substrate (150 μL) one column at a time and the start time recorded. Once the entire plate was loaded, it was inserted into the microplate reader and analyzed every 10 min. for 2-12 hrs.
Serial dilution of AMC (reagent #6) to determine linear fluorescence range: Reagent #6 (35.9 μL) was diluted to 2.0 mL buffer A to give a concentration of 0.4 mM. A 1:2 dilution was performed to give a final concentration range of 0.4 mM-0.024 uM. This was loaded into a 96-well microplate in duplicate and scanned one time. Serial dilution of PSA (reagent #5)+substrate: 20 μL of each standard PSA standard solution (see general procedure for protein dilution above) was loaded in duplicate into a 96-well microplate followed by 150 μL of peptide substrate in buffer A (see general procedure above) and scanned for at least 3 hrs. Serial dilution of α-Chymotrypsin (reagent #8)+substrate: Same as experiment 2 but with reagent #8. […]

T1 sequence (P07288 25-261): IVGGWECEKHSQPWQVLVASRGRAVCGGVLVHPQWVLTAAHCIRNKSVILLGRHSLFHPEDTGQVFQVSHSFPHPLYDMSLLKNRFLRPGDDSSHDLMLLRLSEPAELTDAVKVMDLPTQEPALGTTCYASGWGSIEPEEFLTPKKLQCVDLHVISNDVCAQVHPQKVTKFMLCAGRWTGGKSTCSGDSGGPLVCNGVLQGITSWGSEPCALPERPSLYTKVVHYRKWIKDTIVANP

Compound | effect of sacrificial ester on turnover of peptide substrate (esterases) | cleavage of substrate by PSA (PSA)
COC(=O)[C@H](C)N [alanine methyl ester] | no difference between the sample run with ester and that run without ester | 
Mor-HSSK-Hiv-Q-AMC |  | show cleavage by PSA
Mor-HSSK-Hic-Q-AMC |  | show cleavage by PSA
